Patent publication US9932314B2, “Pyrazole compounds and their use as T-type calcium channel blockers” (IDORSIA PHARMACEUTICALS LTD, priority 2015, dated 2018)

Target: T1, voltage-dependent T-type calcium channel subunit alpha-1G (Cav3.2) (Homo sapiens, UniProt O95180)
T1 construct: expressed in transfected cells; host or cells: HEK293
Test: FLIPR calcium flux assay, HEK293 cells recombinantly expressing Cav3.2
Type: cell-based
Conditions: Cav3.2-channel, Fluo-4-AM, 3 min incubation, stimulation with 10 mM CaCl2
How it was run: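 Calcium influx was triggered by adding CaCl2 to 10 mM final, 3 min after compounds in tetraethylammonium-based buffer, pH 7.2, reached Fluo-4-AM-loaded recombinant HEK293 cells. The integrated kinetic fluorescence signal per concentration gave concentration-response curves by non-linear sigmoidal regression.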

T1 sequence (O95180 whole entry): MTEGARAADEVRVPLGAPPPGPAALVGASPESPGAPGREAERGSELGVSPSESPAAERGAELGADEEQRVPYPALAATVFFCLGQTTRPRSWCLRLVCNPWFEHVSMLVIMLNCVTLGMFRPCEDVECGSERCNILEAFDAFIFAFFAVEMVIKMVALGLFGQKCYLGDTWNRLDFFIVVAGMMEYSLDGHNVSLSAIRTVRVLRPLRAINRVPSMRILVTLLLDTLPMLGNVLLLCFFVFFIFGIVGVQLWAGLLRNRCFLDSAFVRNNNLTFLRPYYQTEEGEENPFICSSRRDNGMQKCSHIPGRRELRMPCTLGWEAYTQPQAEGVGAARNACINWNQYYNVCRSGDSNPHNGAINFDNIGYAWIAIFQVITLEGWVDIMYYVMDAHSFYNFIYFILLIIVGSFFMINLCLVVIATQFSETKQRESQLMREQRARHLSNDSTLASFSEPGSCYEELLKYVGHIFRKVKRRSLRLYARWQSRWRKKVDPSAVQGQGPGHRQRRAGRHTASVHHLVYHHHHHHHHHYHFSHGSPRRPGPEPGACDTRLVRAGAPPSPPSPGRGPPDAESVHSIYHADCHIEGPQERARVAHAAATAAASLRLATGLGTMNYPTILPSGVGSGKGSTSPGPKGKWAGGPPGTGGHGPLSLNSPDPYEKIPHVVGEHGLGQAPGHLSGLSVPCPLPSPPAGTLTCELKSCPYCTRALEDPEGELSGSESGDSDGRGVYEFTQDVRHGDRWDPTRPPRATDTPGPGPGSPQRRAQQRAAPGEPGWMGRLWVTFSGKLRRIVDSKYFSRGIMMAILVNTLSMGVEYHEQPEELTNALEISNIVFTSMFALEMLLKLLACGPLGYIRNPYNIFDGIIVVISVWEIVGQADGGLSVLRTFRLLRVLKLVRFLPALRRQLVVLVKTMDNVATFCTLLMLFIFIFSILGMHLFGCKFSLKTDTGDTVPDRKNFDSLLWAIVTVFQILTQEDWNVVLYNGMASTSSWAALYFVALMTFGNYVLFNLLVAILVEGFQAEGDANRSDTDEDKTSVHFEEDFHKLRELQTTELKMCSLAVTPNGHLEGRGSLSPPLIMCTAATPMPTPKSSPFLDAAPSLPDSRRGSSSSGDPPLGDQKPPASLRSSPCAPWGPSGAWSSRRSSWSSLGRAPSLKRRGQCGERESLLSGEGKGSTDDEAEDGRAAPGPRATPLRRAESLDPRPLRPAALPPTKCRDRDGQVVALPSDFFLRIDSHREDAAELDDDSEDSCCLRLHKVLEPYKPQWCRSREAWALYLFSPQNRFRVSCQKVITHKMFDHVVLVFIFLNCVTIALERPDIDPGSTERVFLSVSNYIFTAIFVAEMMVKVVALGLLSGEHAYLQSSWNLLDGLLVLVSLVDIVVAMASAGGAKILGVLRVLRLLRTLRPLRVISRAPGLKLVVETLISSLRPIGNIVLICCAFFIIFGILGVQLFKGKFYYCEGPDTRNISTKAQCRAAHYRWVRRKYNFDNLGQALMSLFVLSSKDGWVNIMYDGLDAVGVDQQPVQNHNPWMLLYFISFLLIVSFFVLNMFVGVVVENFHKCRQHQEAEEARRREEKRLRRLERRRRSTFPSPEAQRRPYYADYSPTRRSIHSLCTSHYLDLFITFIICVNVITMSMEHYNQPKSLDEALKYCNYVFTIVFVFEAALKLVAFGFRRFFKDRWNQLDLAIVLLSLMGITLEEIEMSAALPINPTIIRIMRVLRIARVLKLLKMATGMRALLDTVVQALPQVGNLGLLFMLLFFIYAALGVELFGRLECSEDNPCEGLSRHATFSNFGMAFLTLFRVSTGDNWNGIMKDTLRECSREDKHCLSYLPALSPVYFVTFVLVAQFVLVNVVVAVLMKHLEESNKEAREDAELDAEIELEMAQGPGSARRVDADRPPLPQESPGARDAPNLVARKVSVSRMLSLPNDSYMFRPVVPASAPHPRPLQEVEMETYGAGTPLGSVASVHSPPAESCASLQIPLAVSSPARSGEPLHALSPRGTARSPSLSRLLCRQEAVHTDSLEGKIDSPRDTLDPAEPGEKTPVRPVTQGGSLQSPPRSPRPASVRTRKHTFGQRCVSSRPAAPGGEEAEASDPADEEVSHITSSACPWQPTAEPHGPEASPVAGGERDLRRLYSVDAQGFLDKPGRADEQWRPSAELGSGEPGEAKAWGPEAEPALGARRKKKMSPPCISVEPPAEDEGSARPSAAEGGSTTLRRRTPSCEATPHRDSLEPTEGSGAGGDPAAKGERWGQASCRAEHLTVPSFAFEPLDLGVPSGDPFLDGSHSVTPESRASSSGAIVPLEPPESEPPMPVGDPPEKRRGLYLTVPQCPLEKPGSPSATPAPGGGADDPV

SMILES	IC50 [µM]
CC(C)c1ccc(CC(=O)Nc2ccn(Cc3ccc(N4CC[C@H](F)C4)cn3)n2)cc1 [Example 108, N-{1-[5-((S)-3-Fluoro-pyrrolidin-1-yl)-pyridin-2-ylmethyl]-1H-pyrazol-3-yl}-2-(4-isopropyl-phenyl)-acetamide]	0.322
CC(C)c1ccc(CC(=O)Nc2ccn(Cc3ccc(F)cc3)n2)cc1 [Example 6, N-[1-(4-Fluoro-benzyl)-1H-pyrazol-3-yl]-2-(4-isopropyl-phenyl)-acetamide]	0.0066
O=C(Cc1ccc(N2CCC2)nc1)Nc1ccn(Cc2ccc(F)c(F)c2)n1 [Example 99, 2-(6-Azetidin-1-yl-pyridin-3-yl)-N-[1-(3,4-difluoro-benzyl)-1H-pyrazol-3-yl]-acetamide]	0.048
CCc1ccc(Cn2ccc(NC(=O)Cc3ccc(C(C)C)cc3)n2)nc1 [Example 100, N-[1-(5-Ethyl-pyridin-2-ylmethyl)-1H-pyrazol-3-yl]-2-(4-isopropyl-phenyl)-acetamide]	0.06
CC(C)c1ccc(CC(=O)Nc2ccn(Cc3ccc(C#N)cn3)n2)cc1 [Example 71, N-[1-(5-Cyano-pyridin-2-ylmethyl)-1H-pyrazol-3-yl]-2-(4-isopropyl-phenyl)-acetamide]	0.06
CN(c1ccc(CC(=O)Nc2ccn(Cc3ccc(F)c(F)c3)n2)cn1)C1CC1 [Example 165, 2-[6-(Cyclopropyl(methyl)amino)-pyridin-3-yl]-N-[1-(3,4-difluoro-benzyl)-1H-pyrazol-3-yl]-acetamide]	0.013
COc1ccc(Cn2ccc(NC(=O)Cc3ccc(OC4CCC4)cc3)n2)cc1 [Example 199, 2-(4-Cyclobutoxy-phenyl)-N-[1-(4-methoxy-benzyl)-1H-pyrazol-3-yl]-acetamide]	0.074
CCc1ccc(Cn2ccc(NC(=O)Cc3ccc(N(C)C)cc3)n2)cc1 [Example 16, 2-(4-Dimethylamino-phenyl)-N-[1-(4-ethyl-benzyl)-1H-pyrazol-3-yl]-acetamide]	0.01
CC(C)c1ccc(CC(=O)Nc2ccn(Cc3ccc(F)c(Cl)n3)n2)cc1 [Example 211, N-[1-(6-Chloro-5-fluoro-pyridin-2-ylmethyl)-1H-pyrazol-3-yl]-2-(4-isopropyl-phenyl)-acetamide]	0.0031
COc1ccc(Cn2ccc(NC(=O)Cc3ccc(N4CCC4)cc3)n2)cc1 [Example 55, 2-(4-Azetidin-1-yl-phenyl)-N-[1-(4-methoxy-benzyl)-1H-pyrazol-3-yl]-acetamide]	0.033
O=C(Cc1ccc(C2(F)COC2)nc1)Nc1ccn(Cc2ccc(F)c(F)c2)n1 [Example 315, N-[1-(3,4-Difluoro-benzyl)-1H-pyrazol-3-yl]-2-[6-(3-fluoro-oxetan-3-yl)-pyridin-3-yl]-acetamide]	0.24
N#Cc1ccc(Cn2ccc(NC(=O)Cc3ccc(N4CCC4)nc3)n2)cc1 [Example 111, 2-(6-Azetidin-1-yl-pyridin-3-yl)-N-[1-(4-cyano-benzyl)-1H-pyrazol-3-yl]-acetamide]	1.33
CN(c1ccc(CC(=O)Nc2ccn(Cc3ccc(C#N)cc3)n2)cn1)C1CC1 [Example 166, N-[1-(4-Cyano-benzyl)-1H-pyrazol-3-yl]-2-[6-(cyclopropyl(methyl)amino)-pyridin-3-yl]-acetamide]	0.086
Cc1ccc(Cn2ccc(NC(=O)Cc3ccc(N(C)C)nc3)n2)cc1F [Example 38, 2-(6-Dimethylamino-pyridin-3-yl)-N-[1-(3-fluoro-4-methyl-benzyl)-1H-pyrazol-3-yl]-acetamide]	0.039
CC(C)c1ccc(CC(=O)Nc2ccn(Cc3ccc(C#N)c(Cl)n3)n2)cc1 [Example 110, N-[1-(6-Chloro-5-cyano-pyridin-2-ylmethyl)-1H-pyrazol-3-yl]-2-(4-isopropyl-phenyl)-acetamide]	0.014
CN(C)c1ccc(CC(=O)Nc2ccn(Cc3ccc(F)cn3)n2)cn1 [Example 150, 2-(6-Dimethylamino-pyridin-3-yl)-N-[1-(5-fluoro-pyridin-2-ylmethyl)-1H-pyrazol-3-yl]-acetamide]	0.682
CN(C)c1ccc(CC(=O)Nc2ccn(Cc3ccc(F)c(Cl)c3)n2)cc1 [Example 31, N-[1-(3-Chloro-4-fluoro-benzyl)-1H-pyrazol-3-yl]-2-(4-dimethylamino-phenyl)-acetamide]	0.004
CN(C)c1ccc(CC(=O)Nc2ccn(Cc3ccc(C#N)cn3)n2)cc1 [Example 33, N-[1-(5-Cyano-pyridin-2-ylmethyl)-1H-pyrazol-3-yl]-2-(4-dimethylamino-phenyl)-acetamide]	0.101

Now from value to molecule:

IC50 [µM]	SMILES
0.051	N#Cc1c(F)cc(Cn2ccc(NC(=O)Cc3ccc(OCC4CC(F)(F)C4)cc3)n2)cc1F [Example 363, N-[1-(4-Cyano-3,5-difluoro-benzyl)-1H-pyrazol-3-yl]-2-[4-(3,3-difluoro-cyclobutylmethoxy)-phenyl]-acetamide]
0.0049	Cc1cc(CC(=O)Nc2ccn(Cc3ccc(F)c(C#N)n3)n2)cc(C)c1OCC(F)(F)F [Example 415, N-[1-(6-Cyano-5-fluoro-pyridin-2-ylmethyl)-1H-pyrazol-3-yl]-2-[3,5-dimethyl-4-(2,2,2-trifluoro-ethoxy)-phenyl]-acetamide]
0.378	CC1(c2ccc(CC(=O)Nc3ccn(Cc4ccc(C#N)cn4)n3)cc2)COC1 [Example 318, N-[1-(5-Cyano-pyridin-2-ylmethyl)-1H-pyrazol-3-yl]-2-[4-(3-methyl-oxetan-3-yl)-phenyl]-acetamide]
0.36	N#Cc1c(F)cc(Cn2ccc(NC(=O)Cc3ccc(OCC4COC4)cc3)n2)cc1F [Example 360, N-[1-(4-Cyano-3,5-difluoro-benzyl)-1H-pyrazol-3-yl]-2-[4-(oxetan-3-ylmethoxy)-phenyl]-acetamide]
0.051	CC(C)Cc1ccc(CC(=O)Nc2ccn(Cc3ccc(F)c(F)c3)n2)cc1C#N [Example 393, 2-(3-Cyano-4-isobutyl-phenyl)-N-[1-(3,4-difluoro-benzyl)-1H-pyrazol-3-yl]-acetamide]
0.033	CC(C)c1cn(C)c2ccc(CC(=O)Nc3ccn(Cc4ccc(F)c(C#N)c4)n3)cc12 [Example 328, N-[1-(3-Cyano-4-fluoro-benzyl)-1H-pyrazol-3-yl]-2-(3-isopropyl-1-methyl-1H-indol-5-yl)-acetamide]
0.034	N#Cc1ccc(Cn2ccc(NC(=O)Cc3ccc(S(F)(F)(F)(F)F)cc3)n2)nc1 [Example 336, N-(1-((5-cyanopyridin-2-yl)methyl)-1H-pyrazo1-3-yl)-2-(4-(pentafluoro-λ^6-sulfanyl)phenyl)acetamide]
0.031	CC(C)c1cn(C)c2ccc(CC(=O)Nc3ccn(Cc4ccc(C#N)cn4)n3)cc12 [Example 324, N-[1-(5-Cyano-pyridin-2-ylmethyl)-1H-pyrazol-3-yl]-2-(3-isopropyl-1-methyl-1H-indol-5-yl)-acetamide]
0.049	CC(C)(C)c1ccc(CC(=O)Nc2ccn(Cc3cc(C#N)c(F)cn3)n2)cc1 [Example 400, 2-(4-tert-Butyl-phenyl)-N-[1-(4-cyano-5-fluoro-pyridin-2-ylmethyl)-1H-pyrazol-3-yl]-acetamide]
0.026	N#Cc1cc(Cn2ccc(NC(=O)Cc3ccc(C4(C#N)CC4)cc3)n2)ccc1F [Example 355, 2-[4-(1-Cyano-cyclopropyl)-phenyl]-N-[1-(3-cyano-4-fluoro-benzyl)-1H-pyrazol-3-yl]-acetamide]
